Experimental data taken from patent US11370769B2, “TRPC5 inhibitors and methods of using same” (BOARD OF REGENTS OF THE UNIVERSITY OF NEBRASKA, priority 2017, dated 2022).

System: podocytes
Assay: ROS assay in wild-type podocytes treated with AngII
Type: cell-based, mouse
Details: WT podocytes, AngII 10 μM, 30 μM compound, 3 hours
Experimental: Podocyte culture and viral transduction: Immortalized mouse podocytes were cultured as previously described (10, 11). Podocyte viral transduction was performed using lentivirus as previously described (10, 11). Briefly, lentivirus production was carried out in HEK293T cells at 60% confluence, and viral particles were collected two days after transfection and purified by centrifugation at 1,000 rcf for 5 min. Purified lentivirus was frozen at −80° C. until further use. Podocytes were transduced with lentivirus after 7 days of differentiation, and assays were performed 5 days after viral transduction.
ROS and cell viability assays: For ROS experiment in FIG. 4A, mature podocytes were cultured as previously described. Cells were incubated with CellRox Deep Red reagent (ThermoFisher) for 30 min at 37° C. Then cells were treated with DMSO, 10 μM angiotensin II, 10 μM angiotensin II with 30 μM AC1903, or 10 μM angiotensin II with 30 μM N-acetyl-L-cysteine (NAC) for 3 hours at 37° C. Cells were washed with PBS twice and fluorescence images were observed using Olympus IX71 microscopy. Fluorescence intensities were then analyzed using ImageJ software.

In the case of `c1ccc(Cn2c(NCc3ccco3)nc3ccccc32)cc1` [AC1903], the “AngII-induced ROS” value is reported as “blocked”.
